Where two headings read alike, the source gives them in different places.
Key:
PI3 kinase alpha = PI3 kinase alpha (Homo sapiens, UniProt P42336); test: PI3K ATP depletion assay (Biological Method 1, Assay 3; KinaseGlo luminescence); format: biochemical; details: ATP depletion assay, read-out: PI3 Kinase Alpha, IC50
Procedure, shortened: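 Compound in DMSO was mixed with 10 nM PI3 kinase and 5 μg/mL phosphatidylinositol, and the reaction was started with 2 μM ATP. It ran to about 50% ATP depletion and was stopped with KinaseGlo.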

[1] = test system: A2780 ovarian cancer cells; test: Cellular proliferation in A2780 cells, Cell Titer Glo (Biological Method 4); format: cell-based; details: Homo sapiens
Procedure, shortened: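 A2780 cells seeded at 1,000/well in DMEM with 10% FBS, at least 2 h before compound, then exposed 72 h at 37 °C, 5% CO2. Viable cells measured by Cell Titer Glo luminescence; EC50 calculated from duplicate conditions.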

[2] = ovarian cancer cell line A2780, Biological Method 4

Sequence of PI3 kinase alpha (P42336 whole entry): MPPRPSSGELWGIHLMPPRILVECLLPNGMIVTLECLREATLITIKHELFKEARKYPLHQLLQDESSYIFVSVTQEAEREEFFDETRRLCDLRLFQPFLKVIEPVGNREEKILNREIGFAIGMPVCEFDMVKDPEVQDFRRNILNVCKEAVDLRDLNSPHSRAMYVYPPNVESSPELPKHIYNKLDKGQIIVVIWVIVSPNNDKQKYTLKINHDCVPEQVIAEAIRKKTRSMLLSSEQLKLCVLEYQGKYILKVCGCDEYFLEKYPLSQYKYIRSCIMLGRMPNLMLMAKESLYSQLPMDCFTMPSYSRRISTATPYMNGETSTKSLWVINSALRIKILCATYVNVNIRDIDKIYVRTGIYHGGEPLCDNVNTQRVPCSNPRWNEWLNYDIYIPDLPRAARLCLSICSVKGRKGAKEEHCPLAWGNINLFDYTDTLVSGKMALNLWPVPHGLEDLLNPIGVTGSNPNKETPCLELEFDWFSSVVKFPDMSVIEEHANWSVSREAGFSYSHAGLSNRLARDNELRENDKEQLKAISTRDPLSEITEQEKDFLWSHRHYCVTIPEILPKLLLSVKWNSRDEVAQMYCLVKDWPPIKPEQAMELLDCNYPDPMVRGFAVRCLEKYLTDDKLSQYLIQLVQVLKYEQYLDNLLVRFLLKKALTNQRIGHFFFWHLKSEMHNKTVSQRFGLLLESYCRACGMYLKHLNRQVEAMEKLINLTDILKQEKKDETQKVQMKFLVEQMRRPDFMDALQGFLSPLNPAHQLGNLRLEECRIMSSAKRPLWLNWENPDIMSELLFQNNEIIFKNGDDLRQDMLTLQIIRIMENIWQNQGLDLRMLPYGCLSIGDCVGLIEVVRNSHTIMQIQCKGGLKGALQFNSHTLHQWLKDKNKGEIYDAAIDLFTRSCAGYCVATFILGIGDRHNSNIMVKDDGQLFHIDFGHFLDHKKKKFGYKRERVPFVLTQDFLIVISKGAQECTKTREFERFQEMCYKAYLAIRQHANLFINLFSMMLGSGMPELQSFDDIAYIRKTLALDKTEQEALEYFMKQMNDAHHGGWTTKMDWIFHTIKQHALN
Sequence of PI3 kinase alpha (P27986 whole entry partner): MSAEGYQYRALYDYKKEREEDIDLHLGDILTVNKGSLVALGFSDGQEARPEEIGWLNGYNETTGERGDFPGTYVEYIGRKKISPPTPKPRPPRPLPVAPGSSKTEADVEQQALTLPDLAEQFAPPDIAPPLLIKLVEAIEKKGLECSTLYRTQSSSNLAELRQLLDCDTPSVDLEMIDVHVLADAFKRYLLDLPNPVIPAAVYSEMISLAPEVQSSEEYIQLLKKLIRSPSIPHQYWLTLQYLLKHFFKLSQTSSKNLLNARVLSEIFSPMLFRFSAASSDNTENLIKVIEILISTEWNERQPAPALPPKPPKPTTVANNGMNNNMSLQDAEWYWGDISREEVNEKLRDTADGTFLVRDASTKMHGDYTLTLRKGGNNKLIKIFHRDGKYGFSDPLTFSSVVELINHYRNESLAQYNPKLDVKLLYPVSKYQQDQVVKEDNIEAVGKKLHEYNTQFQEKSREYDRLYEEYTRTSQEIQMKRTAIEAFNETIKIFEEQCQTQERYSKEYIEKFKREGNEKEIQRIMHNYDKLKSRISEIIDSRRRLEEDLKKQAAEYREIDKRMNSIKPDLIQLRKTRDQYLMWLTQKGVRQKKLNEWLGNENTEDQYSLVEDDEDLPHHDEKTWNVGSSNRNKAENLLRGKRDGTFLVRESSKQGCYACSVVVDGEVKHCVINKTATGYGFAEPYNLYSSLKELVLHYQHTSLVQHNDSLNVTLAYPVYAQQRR

| Structure (SMILES) | IC50 (PI3 kinase alpha; Biological Method 1) [µM] | EC50 [1, 2] [µM] | IC50 (PI3 kinase alpha) [µM] | EC50 ([1]; ovarian cancer cell line A2780) [µM] |
| --- | --- | --- | --- | --- |
| Cc1c(-c2cnc(N)nc2)nc(N2CCOCC2)nc1-c1cncc(OCCN(C)C)c1 [Compound 270] | < 1 | < 25 | – | – |
| CN1CCN(c2ccc(Nc3cc(-c4ccc(N)nc4)nc(N4CCOCC4)n3)cn2)CC1 [Compound 300] | < 1 | < 10 | – | – |
| COc1cc2cc(Nc3cc(-c4ccc(N)nc4)nc(N4CCOCC4)n3)cnc2cc1OC [Compound 311] | < 1 | < 1 | – | – |
| CC(C)(C)Nc1cc(-c2cnc(N)nc2)nc(N2CCOCC2)n1 [Compound 16] | – | – | < 1 | < 1 |
| Nc1ccc(-c2cc(-c3cccnc3F)nc(N3CCOCC3)n2)cn1 [Compound 508] | – | – | < 1 | < 10 |
| Nc1ccc(-c2cc(Sc3ccccn3)nc(N3CCOCC3)n2)cn1 [Compound 295] | < 1 | < 10 | – | – |
| Nc1ncc(-c2cc(N3CCCc4ccccc43)nc(N3CCOCC3)n2)cn1 [Compound 411] | – | – | < 1 | < 10 |
| Nc1ncc(-c2cc(-c3ccc(F)nc3)nc(N3CCOCC3)n2)cn1 [Compound 278] | < 1 | < 10 | – | – |
| COC(=O)N1CCC[C@@H](Oc2cc(-c3cnc(N)cc3C(F)(F)F)nc(N3CCOCC3)n2)C1 [Compound 452] | – | – | < 1 | < 10 |
| CN(C)CCOc1ccc(-c2cc(-c3cnc(N)nc3)nc(N3CCOCC3)n2)cn1 [Compound 223] | < 1 | < 10 | – | – |
| Cc1nc(N)ncc1-c1nc(N2CCOCC2)nc(Cl)c1C [Compound 468] | – | – | < 1 | < 25 |
| Nc1ccc(-c2cc(Nc3ccc(NCCN4CCCC4)nc3)nc(N3CCOCC3)n2)cn1 [Compound 497] | – | – | < 1 | < 10 |
| Nc1cc(C(F)(F)F)c(-c2cc(N3CCOC(c4ccc(F)cc4)C3)nc(N3CCOCC3)n2)cn1 (stereo not drawn) [Compound 335] | < 1 | < 10 | – | – |
| Nc1cc(C(F)(F)F)c(-c2cc(N3CCOC(c4ccc(Cl)cc4)C3)nc(N3CCOCC3)n2)cn1 (stereo not drawn) [Compound 336] | < 1 | < 10 | – | – |
| Nc1cc(C(F)(F)F)c(-c2cc(N3CCCOCC3)nc(N3CCOCC3)n2)cn1 [Compound 221] | < 1 | < 10 | – | – |
| CC(=O)N1CCC(Oc2ccc(Nc3cc(-c4cnc(N)cc4C(F)(F)F)nc(N4CCOCC4)n3)cn2)CC1 [Compound 262] | < 1 | < 10 | – | – |
| Nc1ncc(-c2cc(N3CCOc4ccccc43)nc(N3CCOCC3)n2)c(C(F)(F)F)n1 [Compound 546] | – | – | < 1 | < 10 |
| COc1ccccc1Nc1cc(-c2cnc(N)nc2)nc(N2CCOCC2)n1 [Compound 306] | < 1 | < 10 | – | – |
| Nc1cc(C(F)(F)F)c(-c2cc(N3CCOC(C(=O)NC4CCOCC4)C3)nc(N3CCOCC3)n2)cn1 (stereo not drawn) [Compound 329] | < 1 | < 25 | – | – |
| Nc1cc(Cl)c(-c2cc(N3CCOC(c4ccccc4)C3)nc(N3CCOCC3)n2)cn1 (stereo not drawn) [Compound 342] | < 1 | < 10 | – | – |
| Nc1ccc(-c2cc(Nc3ccc4cn[nH]c4c3)nc(N3CCOCC3)n2)cn1 [Compound 227] | < 1 | < 10 | – | – |
| Nc1ncc(-c2cc(N3CCCC3)nc(N3CCOCC3)n2)cn1 [Compound 399] | – | – | < 1 | < 10 |
| Nc1cc(C(F)(F)F)c(-c2cc(Nc3ccc(-c4nn[nH]n4)cc3)nc(N3CCOCC3)n2)cn1 [Compound 281] | < 1 | < 25 | – | – |

| Structure (SMILES) | IC50 (PI3 kinase alpha; Biological Method 1) [µM] | EC50 [1, 2] [µM] | IC50 (PI3 kinase alpha) [µM] | EC50 ([1]; ovarian cancer cell line A2780) [µM] |
| --- | --- | --- | --- | --- |
| COC(=O)N1CC[C@@H](Oc2cc(-c3cnc(N)cc3C(F)(F)F)nc(N3CCOCC3)n2)C1 [Compound 539] | – | – | < 1 | < 10 |
| Nc1ncc(-c2ccnc(N3CCOCC3)n2)c(N)n1 [Compound 463] | – | – | < 1 | < 25 |
| CN(C)c1ccc(-c2cc(-c3ccc(N)nc3)nc(N3CCOCC3)n2)cn1 [Compound 505] | – | – | < 1 | < 10 |
| CC(C)C(=O)N1CCC(Oc2cc(-c3cnc(N)cc3C(F)(F)F)nc(N3CCOCC3)n2)CC1 [Compound 458] | – | – | < 1 | < 10 |
| Nc1ncc(-c2ccnc(N3CCOCC3)n2)c(=O)[nH]1 [Compound 462] | – | – | < 1 | < 10 |
| CN1CCN(C(=O)c2cc(-c3cnc(N)nc3)nc(N3CCOCC3)n2)CC1 [Compound 235] | < 1 | < 10 | – | – |
| Nc1ccc(-c2cc(Nc3cccc4[nH]ncc34)nc(N3CCOCC3)n2)cn1 [Compound 347] | < 1 | < 10 | – | – |
| CC(=O)Nc1cccc(-c2cc(-c3ccc(N)nc3)nc(N3CCOCC3)n2)c1 [Compound 250] | < 1 | < 10 | – | – |
| Nc1ncc(-c2cc(N[C@@H]3CN4CCC3CC4)nc(N3CCOCC3)n2)cn1 [Compound 520] | – | – | < 1 | < 10 |
| Nc1cc(C(F)(F)F)c(-c2cc(N3CCCCC3=O)nc(N3CCOCC3)n2)cn1 [Compound 17] | – | – | < 1 | < 1 |
| N#Cc1cc(-c2cnc(N)nc2)nc(N2CCOCC2)n1 [Compound 237] | < 1 | < 10 | – | – |
| Nc1ccc(-c2cc(Nc3ccc(F)cc3)nc(N3CCOCC3)n2)cn1 [Compound 305] | < 1 | < 10 | – | – |
| COC(=O)c1cnc(N2CCOCC2)nc1-c1cnc(N)nc1 [Compound 431] | – | – | < 1 | < 25 |
| CN1CCC(Oc2cc(-c3cnc(N)nc3)nc(N3CCOCC3)n2)CC1 [Compound 514] | – | – | < 1 | < 10 |
| N#Cc1cc(N)ncc1-c1cc(N2CCOC(c3ccccc3)C2)nc(N2CCOCC2)n1 (stereo not drawn) [Compound 341] | < 1 | < 10 | – | – |
| Nc1ccc(-c2cc(Nc3ccnc4cc(C(F)(F)F)ccc34)nc(N3CCOCC3)n2)cn1 [Compound 380] | < 1 | < 10 | – | – |
| N#Cc1ccnc(Nc2cc(-c3cnc(N)cc3C(F)(F)F)nc(N3CCOCC3)n2)c1 [Compound 239] | < 1 | < 10 | – | – |
| Nc1ccc(-c2cc(Nc3cc(F)ccc3F)nc(N3CCOCC3)n2)cn1 [Compound 436] | – | – | < 1 | < 10 |
| Nc1ccc(-c2cc(Nc3cc(F)ccn3)nc(N3CCOCC3)n2)cn1 [Compound 351] | < 1 | < 25 | – | – |
| CC(=O)N1CCC(Oc2cc(-c3cnc(N)cc3C(F)(F)F)nc(N3CCOCC3)n2)CC1 [Compound 19] | – | – | < 1 | < 1 |
| Nc1ncc(-c2cc(NC3CC3)nc(N3CCOCC3)n2)cn1 [Compound 402] | – | – | < 1 | < 10 |
| Nc1cc(C(F)(F)F)c(-c2cc(N3CCC(=O)CC3)nc(N3CCOCC3)n2)cn1 [Compound 324] | < 1 | < 10 | – | – |

The remaining lines, values ahead:

| IC50 (PI3 kinase alpha; Biological Method 1) [µM] | EC50 [1, 2] [µM] | IC50 (PI3 kinase alpha) [µM] | EC50 ([1]; ovarian cancer cell line A2780) [µM] | Structure (SMILES) |
| --- | --- | --- | --- | --- |
| < 1 | < 25 | – | – | Nc1cc(C(F)(F)F)c(-c2cc(N3CCOC(C(=O)N4CCOCC4)C3)nc(N3CCOCC3)n2)cn1 (stereo not drawn) [Compound 325] |
| < 1 | < 25 | – | – | Nc1ncc(-c2cc(NC(=O)Cc3cccnc3)nc(N3CCOCC3)n2)cn1 [Compound 291] |
| < 1 | < 10 | – | – | COc1cccc(Nc2cc(-c3cnc(N)nc3)nc(N3CCOCC3)n2)c1 [Compound 308] |
| – | – | < 1 | < 25 | N#Cc1cc(N)ncc1-c1cc(-c2cccnc2F)nc(N2CCOCC2)n1 [Compound 417] |
| – | – | < 1 | < 10 | CN(c1cc(-c2cnc(N)nc2)nc(N2CCOCC2)n1)C1CCOCC1 [Compound 6] |
| < 1 | < 10 | – | – | CC(=O)Nc1ccccc1-c1cc(-c2ccc(N)nc2)nc(N2CCOCC2)n1 [Compound 253] |
| – | – | < 1 | < 1 | Nc1ncc(-c2cc(OC3CCOCC3)nc(N3CCOCC3)n2)cn1 [Compound 515] |
| – | – | < 1 | < 25 | CNc1cc(-c2cnc(N)nc2)nc(N2CCOCC2)n1 [Compound 401] |
| – | – | < 1 | < 10 | Nc1cc(C(F)(F)F)c(-c2cc(-c3ccccc3S(N)(=O)=O)nc(N3CCOCC3)n2)cn1 [Compound 543] |
| – | – | < 1 | < 10 | Nc1ncc(-c2cc(Nc3ccc4[nH]cnc4c3)nc(N3CCOCC3)n2)cn1 [Compound 521] |
| < 1 | < 10 | – | – | Nc1ccc(-c2cc(Nc3cccc(S(N)(=O)=O)c3)nc(N3CCOCC3)n2)cn1 [Compound 362] |
| < 1 | < 10 | – | – | Nc1ncc(-c2cc(N3CCNC(=O)C3)nc(N3CCOCC3)n2)cn1 [Compound 392] |
| – | – | < 1 | < 25 | Nc1ncc(-c2cc(Nc3cnc4ccc(OC(F)(F)F)cc4c3)nc(N3CCOCC3)n2)cn1 [Compound 495] |
| – | – | < 1 | < 10 | COC(=O)N1CCC[C@H](Oc2cc(-c3cnc(N)cc3C(F)(F)F)nc(N3CCOCC3)n2)C1 [Compound 454] |
| < 1 | < 10 | – | – | Nc1ccc(-c2cc(-c3ccncc3)nc(N3CCOCC3)n2)cn1 [Compound 246] |
| – | – | < 1 | < 10 | Nc1ccc(-c2cc(Oc3cccnc3)nc(N3CCOCC3)n2)cn1 [Compound 512] |
| – | – | < 1 | < 10 | Cc1nc(N)ncc1-c1cc(Nc2ccc3c(c2)OCCO3)nc(N2CCOCC2)n1 [Compound 477] |
| – | – | < 1 | < 10 | CS(=O)(=O)N1CCC(Oc2cc(-c3cnc(N)cc3C(F)(F)F)nc(N3CCOCC3)n2)CC1 [Compound 461] |
| – | – | < 1 | < 10 | CN(C)c1nc2ccccc2cc1-c1cc(-c2ccc(N)nc2)nc(N2CCOCC2)n1 [Compound 500] |
| – | – | < 1 | < 10 | Nc1ncc(-c2cc(Nc3ccnc4ccc(C(F)(F)F)cc34)nc(N3CCOCC3)n2)cn1 [Compound 410] |
| – | – | < 1 | < 10 | Nc1ncc(-c2cc(Cl)nc(N3CCOCC3)n2)cn1 [Compound 523] |
